Values joined by “and” are separate entries in the source; they are usually repeats but may differ in a detail not shown here. Equal entries are not always repeated. Structures can show the parent of a compound that is named as a salt. Where two headings read alike, the source gives them in different places.
Experiments:
cancerous tissues = details: topical application, three xenograft tumour mice models; cited from earlier work
[1] = test system: mucositis, dermatitis and alopecia; details: topically applied, animal models; cited from earlier work
radiation dermatitis = details: cited from earlier work; for relative potencies of the topically applied vasoconstrictors (suppression of radiation dermatitis): 75 μl in ethanol:water (70:30) on 4.5 cm^2 shaved skin 12 min before 17.2 Gy; for potency in comparison to epinephrine: Fahl, 2016
[2] = Stability of pharmaceutical composition with around 20% wt/vol oxygen (Example 9); assay type: physicochemical; details: 5 mM (0.92 mg/ml)
Procedure: The stability study samples were stored at the stability incubator chambers with various temperature and humidity conditions. At indicated time points, pulled samples were assessed on items such as Appearance, Identification, Colour of solution, Clarity of solutions, pH, Assay, Related Substances, Ethanol and Sodium Metabisulfite content for L-epinephrine solution.

squamous human skin = details: 3 mg/ml
submucosal blood vessels = test system: submucosal blood vessels
Procedure: 2. While stirring, 2-5 N HCl was added to achieve a pH of 2.5.
3. […] The subject swished the 12.5 ml of formulation, gargling twice for 5 seconds each, for 2.0 minutes, and then spit out the formulation.

oral mucosa tissue = assay: Lip blanch response after topical application of 1.0 ml to lips (Example 1); assay type: in vivo, human
[3] = for μmols retained in oropharyngeal cavity (A × 0.24): 12.5 ml administered; for Optimum L-Epinephrine Topical Dose (μmols/cm^2): 12.5 ml, surface area 188 cm^2
Procedure: In these experiments, three human volunteer subjects were provided vials containing solution of 5 mM phenylephrine HCl dissolved in our orotopical delivery vehicle, and they were instructed to: • i) deliver the vial contents into their mouths; • ii) ii) swish the liquid in their mouths, pausing to gargle twice for five seconds; and • iii) at the specified time spit out the liquid into a glass vial.
The volume administered and the volume spit out by each test subject were recorded, and HPLC analysis of the phenylephrine concentration in the administered solution and the solutions spit out by each of the three volunteer subjects were determined.

[4] = Nutman et al., Crit Care Med 1994; cited from earlier work
[5] = HCl titration of L-epinephrine free base in orotopical delivery vehicle: pH and appearance; assay type: physicochemical
Procedure: 18 hours later, the clear solution had developed a pink colour (consistent with adrenochrome formation, an oxidative epinephrine metabolite) and flocculant, re-precipitated material had appeared on the surface of the liquid.
An abrupt drop in pH occurred at pH 6.10 in which the turbidity also immediately clarified. Table 2 provides a summary of the pH values from this titration, and indicates the experimentally determined moles of HCl that were required to achieve pH 2.50 in this specific formulation

[6] = 5 mM × 12.5 ml administered, one line per subject, HCl

CNC[C@H](O)c1ccc(O)c(O)c1 [epinephrine]
interference to the curative radiation effect to cancerous tissues (cancerous tissues): no interference | prevention of mucositis, dermatitis and alopecia induced by radiation [1]: successful outcome | relative potencies of the topically applied vasoconstrictors (suppression of radiation dermatitis) (radiation dermatitis): 1

NC[C@H](O)c1ccc(O)c(O)c1 [norepinephrine]
interference to the curative radiation effect to cancerous tissues (cancerous tissues): no interference | prevention of mucositis, dermatitis and alopecia induced by radiation [1]: successful outcome | relative potencies of the topically applied vasoconstrictors (suppression of radiation dermatitis) (radiation dermatitis): 0.5 | potency in comparison to epinephrine (radiation dermatitis): half

CNC[C@H](O)c1cccc(O)c1 [phenylephrine]
interference to the curative radiation effect to cancerous tissues (cancerous tissues): no interference | prevention of mucositis, dermatitis and alopecia induced by radiation [1]: successful outcome | relative potencies of the topically applied vasoconstrictors (suppression of radiation dermatitis) (radiation dermatitis): 0.2 | potency in comparison to epinephrine (radiation dermatitis): one fifth

CNC[C@H](O)c1ccc(O)c(O)c1 [L-epinephrine]
single impurity ([2]; 40° C. for 1 month): ~1.7% | total impurities ([2]; 40° C. for 1 month): 3.8% | concentration of antioxidant sodium metabisulfite ([2]; 60° C. and 40° C.): decreasing trend | decrease of concentration of L-epinephrine ([2]; 60° C. stress condition): about 18% | sample colour ([2]; 60° C. stress condition): light brown | single impurity ([2]; 60° C. stress condition): more than 8% | total impurities ([2]; 60° C. stress condition): more than 17% | duration of blanching after dermal topical application (squamous human skin): about 40 minutes | lip blanching (photos) (submucosal blood vessels; 5.5 mg/ml solution on the lower lip): blanching | lip blanch response (submucosal blood vessels; 5 minutes after initiation of gargling, 12.5 ml, pH 2.5): clear, robust blanch response | time within which robust mucosal blanch was induced (submucosal blood vessels; four healthy volunteers, 0.9-5.5 mg/ml): 5 to 60 min | time to see a robust lip blanch response (oral mucosa tissue; solution at pH 2.50, 20 mM, 1.0 ml on lips): 8 min | time to see a discernible lip blanch response (oral mucosa tissue; solution at pH 4.95, 1.0 ml on lips): ~20 min | share of L-epinephrine dose from the orotopical solution delivered to oral mucosa ([3]; 1.8 mg/ml or 3.6 mg/ml administered to mouths of adult humans): 20-30% | μmols retained in oropharyngeal cavity (A × 0.24) ([3]; 10 mM (1.8 mg/ml)): 30 μmols | Optimum L-Epinephrine Topical Dose (μmols/cm^2) ([3]; 10 mM (1.8 mg/ml)): 0.160 μmols/cm^2 | μmols retained in oropharyngeal cavity (A × 0.24) ([3]; 20 mM (3.6 mg/ml)): 60 μmols | Optimum L-Epinephrine Topical Dose (μmols/cm^2) ([3]; 20 mM (3.6 mg/ml)): 0.320 μmols/cm^2 | potency versus racemic +/−epinephrine HCl [4]: twice as potent | 2N HCl added to adjust to pH 2.33 (ml/l) (L-epi conc 0.92 mg/ml): 5.36 ml/l | pH without addition of L-epi (L-epi conc 0.92 mg/ml): 4.32 | 2N HCl added to adjust to pH 2.33 (ml/l) (L-epi conc 5.50 mg/ml): 11.88 ml/l | pH without addition of L-epi (L-epi conc 5.50 mg/ml): 7.10 | appearance of solution ([5]; at pH 2.50): clear and colourless | appearance of solution ([5]; at pH 4.95): clear and colourless | appearance of solution ([5]; pH 2.50 solution, 48 hrs later): clear and colourless | appearance of solution ([5]; pH 4.95 solution, 18 hours later): pink colour

CNC[C@H](O)c1cccc(O)c1 [PhE-HCl, phenylephrine HCl]
Spit Out PhE-HCl mg/ml (hplc) × ml B ([3]; 5 mM × 12.5 ml (12.8 mg) administered, one line per subject, mean in brackets, HCl): (10.59) mg/ml × ml and 9.23, 9.62 (9.42) mg/ml × ml and 8.91, 9.51 (9.21) mg/ml × ml | % of Administered Dose Spit Out B/A × 100 [3, 6]: 74% and 72% and 83% | % of Orotopical PhE-HCl Dose Delivered to Oral Surfaces [3, 6]: 26% and 28% and 17% | mg PhE-HCl Actually Delivered [3, 6]: 3.3 mg and 3.6 mg and 2.2 mg

— patent publication US20250152524A1, “TOPICAL COMPOSITIONS AND METHODS” (VasoDynamics Limited, priority 2022, published 2025)
